Read-outs that look alike come from different tables or passages of the source.
How the values were obtained:
[1] = assay type: physicochemical
Experimental: To explore the impact of the PNP ligand on the lipophilicity of the complexes, Log Ps in a mixture of n-octanol and PBS were determined. The lipophilicity decreased in the order ^99mTc1 > ^99mTc2 > ^99mTc3. The lipophilic character of each compound correlated well with the corresponding HPLC retention time and protein binding behavior.
Determination of log P values. n-Octanol/PBS partition coefficients were determined by vortex mixing (20 min) 3.0 mL of n-octanol, 3.0 mL of PBS and 100 µL of the radiolabeled compound purified as above. After centrifugation (3000 g for 10 min), aliquots (100 µL) of both the organic and the aqueous phases were collected and counted with a γ-counter.

[2] = assay type: in vitro ADME; conditions: serum
Experimental: Thus, to have some predictive indications of the metabolic outcome of our compounds, the binding to serum proteins and the enzymatic biotransformation of ^99mTc1–3 in blood and tissue homogenates were assessed in vitro by incubating the purified compounds at 37 °C in human and mouse sera as well as in murine liver and kidney homogenates.
Protein Binding. The affinity of the ^99mTc(N) complexes toward the serum proteins was evaluated by chromatographic methods.
Upon incubation, 25 µL of each sample was withdrawn and loaded on a pre-spun (735× g for 2 min) Sephadex G-50 mini-column. The column was centrifuged at 735 × g for 1 min. The collected eluate and the column were counted in a NaI-scintillation counter. The protein-bound complex was calculated as the percentage of the total activity.

[3] = tested on: human melanoma M21 (αvβ3 positive) cells; assay: Cell uptake and internalization in M21 cells; assay type: cell-based
Experimental: (§1) Cell uptake and internalization studies were performed on receptor-positive human melanoma M21 (expressing high levels of αvβ3 integrin and moderate level of integrin αvβ5), human breast cancer MCF7 (exclusively expressing αvβ5), and receptor-negative human melanoma M21L cell lines. The expression of αvβ3 and αvβ5 by cells was already evaluated by flow cytometry (Table 2). The stability of each radiolabeled peptide in the culture media before and after cell exposure was assessed.
(§2) Experiments were conducted in suspension at 37 °C. The working conditions were set up to avoid cell damage and/or death. With the use of these information, the cells were pre-incubated in sterile glass tubes at 37 °C for 10 min, in the presence or not of cRGDfK pentapeptide (50 µL; 1.65 mM).
(§3) Then, 1 mL of the cell suspension (1 × 10^6 cells/mL) was incubated with intermittent agitation with 10 µL (10 µCi) of ^99mTc1–3. At 90 min, the cells were moved in Eppendorf microcentrifuge tubes (1.5 mL) and the incubation was interrupted by centrifugation (3000 rpm for 5 min at 10 °C). The supernatant (S1) was separated from the pellet. The cell pellet was treated 10 min at room temperature with saline acetate buffer (CH3COOH 0.2M/NaCl 0.5 M) to remove the membrane-bound compound. After centrifugation (3000 rpm for 10 min at 10 °C), the supernatant (S2) was separated from the pellet (P1), and each fraction was collected, placed in a separated counting tube, and the activity was measured using a NaI counter (Cobra II, Packard) to estimate both the cell uptake and the internalized fraction.
(§4) The uptake of complexes was expressed as percentage cell uptake of the total activity on 10^6 cells (% cell uptake/10^6 cells).
(§5) All assessments were conducted in triplicate for three experiments.

[4] = tested on: receptor-negative human melanoma M21L cells; assay: Cell uptake and internalization in M21L cells; assay type: cell-based; conditions: negative M21L cell line, 37 °C, 90 min
Experimental: as §1, §2, §3, §4, §5

[5] = tested on: M21 and M21L melanoma tumors; conditions: cited from earlier work; for Blood / Heart / Intestine / Kidneys / Liver / Muscle / Stomach: tumor-bearing mice

SMILES: N=C(N)NCCC[C@@H]1NC(=O)[C@H](CCCCNC(=O)c2ccc(NN)nc2)NC(=O)[C@@H](Cc2ccccc2)NC(=O)[C@H](CC(=O)O)NC(=O)CNC1=O [^99mTc-HYNIC-cRGDfK, metal not drawn]
- logP [1]: -3.52
- fraction unbound [2]: 0.977
- cell uptake (sum of surface bound and internalized radioactivity), blocked ([3]; M21 blocked by an excess of cold cRGDfK, 37 °C, 90 min): 0.85 ± 0.08 % cell uptake/10^6 cells
- cell uptake (sum of surface bound and internalized radioactivity) ([3]; M21 unblocked, 37 °C, 90 min): 1.50 ± 0.08 % cell uptake/10^6 cells
- specific/nonspecific ratio, internalized radioactivity only ([3]; internalized radioactivity, melanoma cell lines): 6.6
- ratio between specific and non-specific uptake ([3]; total uptake, melanoma cell lines): 1.15
- cell uptake (sum of surface bound and internalized radioactivity) [4]: 1.30 ± 0.15 % cell uptake/10^6 cells
- M21/M21L ratio ([5]; 1 h p.i.): 3.21
- M21/blood ratio ([5]; 1 h p.i.): 2.79
- M21/kidneys ratio ([5]; 1 h p.i.): 0.74
- M21/liver ratio ([5]; 1 h p.i.): 1.03
- M21/muscle ratio ([5]; 1 h p.i.): 3.59
- M21L tumor uptake ([5]; 1 h p.i.): 0.85 ± 0.20 %IA/g
- M21 tumor uptake ([5]; 1 h p.i.): 2.73 ± 0.26 %IA/g
- M21/blood ratio ([5]; 4 h p.i.): 4.58
- M21/kidneys ratio ([5]; 4 h p.i.): 0.73
- M21/liver ratio ([5]; 4 h p.i.): 1.20
- M21/muscle ratio ([5]; 4 h p.i.): 6.05
- M21 tumor uptake ([5]; 4 h p.i.): 2.06 ± 0.37 %IA/g
- Blood ([5]; 1 h p.i.): 0.98 ± 0.04 %IA/g
- Heart ([5]; 1 h p.i.): 1.01 ± 0.05 %IA/g
- Intestine ([5]; 1 h p.i.): 2.04 ± 0.18 %IA/g
- Kidneys ([5]; 1 h p.i.): 3.68 ± 0.13 %IA/g
- Liver ([5]; 1 h p.i.): 2.63 ± 0.14 %IA/g
- Muscle ([5]; 1 h p.i.): 0.76 ± 0.69 %IA/g
- Stomach ([5]; 1 h p.i.): 2.50 ± 0.75 %IA
- Blood ([5]; 4 h p.i.): 0.45 ± 0.02 %IA/g
- Heart ([5]; 4 h p.i.): 0.64 ± 0.09 %IA/g
- Intestine ([5]; 4 h p.i.): 1.29 ± 0.25 %IA/g
- Kidneys ([5]; 4 h p.i.): 2.81 ± 0.37 %IA/g
- Liver ([5]; 4 h p.i.): 1.71 ± 0.28 %IA/g
- Muscle ([5]; 4 h p.i.): 0.34 ± 0.05 %IA/g
- Stomach ([5]; 4 h p.i.): 1.28 ± 0.22 %IA
